According to patent US20240218022A1, “ANTI-VISTA MACROCYCLIC PEPTIDES AND COMPOSITIONS” (BRISTOL-MYERS SQUIBB COMPANY, priority 2022, published 2024):
pIC50: −log10 of the molar value. Read-outs that look alike come from different tables or passages of the source. Starred links: 1 amine or outer side, 2 acyl side, 3 side chain; linkers in the order of their positions; H or OH if unused. Positions of bridges follow the written chain, without caps; N, C: chain ends. Non-standard residues stand in square brackets, D forms with d. Residues, ends and D or L forms follow the SMILES beside them. Phe(3-CF3) = N[C@@H](Cc1cccc(C(F)(F)F)c1)C(=O)O; Phe(4-NH2) = Nc1ccc(C[C@H](N)C(=O)O)cc1; Phe(3-Me) = Cc1cccc(C[C@H](N)C(=O)O)c1; Phe(4-F) = N[C@@H](Cc1ccc(F)cc1)C(=O)O; γGlu = O=C(O)[C@H](CCC(=O)[*:2])N[*:1]; 2Nal = N[C@@H](Cc1ccc2ccccc2c1)C(=O)O; βAsp = O=C(O)[C@H](CC(=O)[*:2])N[*:1]; Aad = N[C@@H](CCCC(=O)O)C(=O)O; Cit = NC(=O)NCCC[C@H](N)C(=O)O; Ahp(2) = CCCCC[C@H](N)C(=O)O; NMeNle = CCCC[C@H](NC)C(=O)O; Tle = CC(C)(C)[C@H](N)C(=O)O; NHexGly = CCCCCCNCC(=O)O; Nle = CCCC[C@H](N)C(=O)O; Orn = NCCC[C@H](N)C(=O)O; Aun = NCCCCCCCCCCC(=O)O; Abu = CC[C@H](N)C(=O)O; AEEA = NCCOCCOCC(=O)O

Molecular target: T1, mouse VISTA (mVISTA) (Mus musculus, UniProt Q9D659)
T1 construct: expressed in transfected cells; host or cells: Human embryonic kidney 293T cells
T1 sequence (Q9D659 33-308): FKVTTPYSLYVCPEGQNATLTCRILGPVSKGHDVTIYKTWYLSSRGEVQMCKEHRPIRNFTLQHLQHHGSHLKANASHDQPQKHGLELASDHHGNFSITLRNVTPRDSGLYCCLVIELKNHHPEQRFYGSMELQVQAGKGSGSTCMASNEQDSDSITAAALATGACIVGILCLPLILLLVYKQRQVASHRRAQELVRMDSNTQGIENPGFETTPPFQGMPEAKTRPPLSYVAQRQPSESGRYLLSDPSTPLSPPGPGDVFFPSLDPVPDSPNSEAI
Assay: Cell-Based Binding High-Content Assay For mVISTA (HC CBA mVISTA)
Method in brief: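 293T cells expressing mouse VISTA, with compounds added either after seeding ("no wash") or before seeding and then washed out after 1 h. Biotinylated peptide 2 nM for 30 min at room temperature, then detection with Alexa 647–streptavidin. After fixation with Hoechst stain, plates were high-content imaged; IC50 from four-parameter logistic fit.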

[1] = 293T cells expressing mouse VISTA, competition with biotinylated peptide (2 nM), read-out: HC CBA mVISTA IC50
[2] = cell-based binding high-content assay, mVISTA, read-out: HC CBA miPr ISTA IC50
[3] = the 20th table, scaffold drawing 23, read-out: HC CBA mVISTA IC50

CCCCCCN1CC(=O)N[C@@H](Cc2ccc(O)cc2)C(=O)N[C@@H](CCCCN)C(=O)N[C@@H](CC(=O)O)C(=O)N[C@@H](CCCN)C(=O)N[C@@H](CC(C)C)C(=O)N[C@@H](CCCCC)C(=O)N2CCC[C@H]2C(=O)N[C@@H](C(C)C)C(=O)N[C@@H](CO)C(=O)N[C@H](C(=O)NCC(=O)O)CSCC(=O)N[C@@H](Cc2ccccc2)C(=O)N[C@@H](Cc2ccc(O)cc2)C(=O)N[C@@H](CC(=O)O)C1=O [Example 1051] ({CH2CO}-FYD[NHexGly]YKD[Orn]L[Ahp(2)]PVSCG-OH; thioether N-14)
pIC50 [1]: 7.94

CCCCCCN1CC(=O)N[C@@H](Cc2ccc(O)cc2)C(=O)N[C@@H](CC)C(=O)NCC(=O)N[C@@H](CCCNC(=N)N)C(=O)N[C@@H](CC(C)C)C(=O)N[C@@H](CCCCC)C(=O)N2CCC[C@H]2C(=O)N[C@@H](C(C)C)C(=O)N[C@@H](CO)C(=O)N[C@H](C(=O)NCC(=O)O)CSCC(=O)N[C@@H](Cc2ccccc2)C(=O)N[C@@H](Cc2ccc(O)cc2)C(=O)N[C@@H](CC(=O)O)C1=O [Example 1062] ({CH2CO}-FYD[NHexGly]Y[Abu]GRL[Ahp(2)]PVSCG-OH; thioether N-14)
pIC50 [1]: 7.82

CCCCCCN1CC(=O)N[C@@H](Cc2ccc(O)cc2)C(=O)N[C@@H](CCCNC(=N)N)C(=O)N[C@@H](CC(N)=O)C(=O)N[C@@H](CCCNC(=N)N)C(=O)N[C@@H](CC(C)C)C(=O)N[C@@H](CCCCC)C(=O)N2CCC[C@H]2C(=O)N[C@@H](C(C)C)C(=O)N[C@@H](CC(=O)O)C(=O)N[C@H](C(=O)NCC(=O)O)CSCC(=O)N[C@@H](Cc2ccccc2)C(=O)N[C@@H](Cc2ccc(O)cc2)C(=O)N[C@@H](CC(=O)O)C1=O [Example 1012] ({CH2CO}-FYD[NHexGly]YRNRL[Ahp(2)]PVDCG-OH; thioether N-14)
pIC50 [1]: 7.68

CCCCCCN1CC(=O)N[C@@H](Cc2ccc(O)cc2)C(=O)N[C@@H](CC(C)C)C(=O)N[C@@H](CC(N)=O)C(=O)N[C@@H](CCCN)C(=O)N(C)[C@@H](CCCC)C(=O)N[C@@H](CCCCC)C(=O)N2CCC[C@H]2C(=O)N[C@@H](C(C)(C)C)C(=O)N[C@@H](C(C)C)C(=O)N[C@H](C(=O)N[C@@H](CC(=O)NCCOCCOCC(=O)N[C@@H](CC(=O)O)C(=O)NCCOCCOCC(=O)NCCCCCCCCCCC(=O)O)C(=O)O)CSCC(=O)N[C@@H](Cc2ccccc2)C(=O)N[C@@H](Cc2cccc(C)c2)C(=O)N[C@@H](CC(=O)O)C1=O [compound 2072] ({CH2CO}-F[Phe(3-Me)]D[NHexGly]YLN[Orn][NMeNle][Ahp(2)]P[Tle]VC[βAsp][AEEA]D[AEEA][Aun]-OH; thioether N-14)
pIC50 (cell-based binding high-content assay, mVISTA, read-out: HC CBA miPrISTA IC50): 7.68

CCCCCCN1CC(=O)N[C@@H](Cc2ccc(O)cc2)C(=O)N[C@@H](CC(C)C)C(=O)N[C@@H](CC(N)=O)C(=O)N[C@@H](CCCNC(=N)N)C(=O)N[C@@H](CC(C)C)C(=O)N[C@@H](CCCCC)C(=O)N2CCC[C@H]2C(=O)N[C@@H](C(C)C)C(=O)N[C@@H](C(C)C)C(=O)N[C@H](C(=O)NCC(=O)O)CSCC(=O)N[C@@H](Cc2ccccc2)C(=O)N[C@@H](Cc2cccc(C(F)(F)F)c2)C(=O)N[C@@H](CC(=O)O)C1=O [compound 1333] ({CH2CO}-F[Phe(3-CF3)]D[NHexGly]YLNRL[Ahp(2)]PVVCG-OH; thioether N-14)
pIC50 (read-out: HC CBA mVISTA IC50): 7.56

CCCCCCN1CC(=O)N[C@@H](Cc2ccc(O)cc2)C(=O)N[C@@H](CCCC)C(=O)N[C@@H](CC(N)=O)C(=O)N[C@@H](CCCNC(=N)N)C(=O)N[C@@H](CC(C)C)C(=O)N[C@@H](CCCCC)C(=O)N2CCC[C@H]2C(=O)N[C@@H](C(C)(C)C)C(=O)N[C@@H](CO)C(=O)N[C@H](C(=O)NCCOCCOCC(=O)N[C@@H](CCC(=O)NCCOCCOCC(=O)NCCCCCCCCCCC(=O)O)C(=O)O)CSCC(=O)N[C@@H](Cc2ccccc2)C(=O)N[C@@H](Cc2c[nH]c3ccccc23)C(=O)N[C@@H](CC(=O)O)C1=O [compound 2243] ({CH2CO}-FWD[NHexGly]Y[Nle]NRL[Ahp(2)]P[Tle]SC[AEEA][γGlu][AEEA][Aun]-OH; thioether N-14)
pIC50 (read-out: HC CBA mVISTA IC50): 7.41

CCCCCCN1CC(=O)N[C@@H](Cc2ccc(O)cc2)C(=O)N[C@@H](CC(C)C)C(=O)N[C@@H](CC(N)=O)C(=O)N[C@@H](CCCNC(=N)N)C(=O)N[C@@H](CC(C)C)C(=O)N[C@@H](CCCCC)C(=O)N2CCC[C@H]2C(=O)N[C@@H](C(C)(C)C)C(=O)N[C@@H](C(C)C)C(=O)N[C@H](C(=O)NCCOCCOCC(=O)N[C@@H](CCC(=O)NCCOCCOCC(=O)NCCCCCCCCCCC(=O)O)C(=O)O)CSCC(=O)N[C@@H](Cc2ccccc2)C(=O)N[C@@H](Cc2ccc(O)cc2)C(=O)N[C@@H](CC(=O)O)C1=O [compound 2240] ({CH2CO}-FYD[NHexGly]YLNRL[Ahp(2)]P[Tle]VC[AEEA][γGlu][AEEA][Aun]-OH; thioether N-14)
pIC50 (read-out: HC CBA mVISTA IC50): 7.61

CCCCCCN1CC(=O)N[C@@H](Cc2ccc(O)cc2)C(=O)N[C@@H](CCCC(=O)O)C(=O)N[C@@H](CC(N)=O)C(=O)N[C@@H](CCCNC(=N)N)C(=O)N(C)[C@@H](CCCC)C(=O)N[C@@H](CCCCC)C(=O)N2CCC[C@H]2C(=O)N[C@@H](C(C)(C)C)C(=O)N[C@@H](CO)C(=O)N[C@H](C(=O)N[C@@H](CC(=O)NCCOCCOCC(=O)N[C@@H](CC(=O)O)C(=O)NCCOCCOCC(=O)NCCCCCCCCCCC(=O)O)C(=O)O)CSCC(=O)N[C@@H](Cc2ccccc2)C(=O)N[C@@H](Cc2ccc(O)cc2)C(=O)N[C@@H](CC(=O)O)C1=O [compound 2054] ({CH2CO}-FYD[NHexGly]Y[Aad]NR[NMeNle][Ahp(2)]P[Tle]SC[βAsp][AEEA]D[AEEA][Aun]-OH; thioether N-14)
pIC50 [2]: 7.63

CCCCCCN1CC(=O)N[C@@H](Cc2ccc(O)cc2)C(=O)N[C@@H](CCCC)C(=O)N[C@@H](CC(=O)O)C(=O)N[C@@H](CCCNC(=N)N)C(=O)N[C@@H](CC(C)C)C(=O)N[C@@H](CCCCC)C(=O)N2CCC[C@H]2C(=O)N[C@@H](C(C)C)C(=O)N[C@@H](CC(=O)O)C(=O)N[C@H](C(=O)N[C@@H](CC(=O)O)C(N)=O)CSCC(=O)N[C@@H](Cc2ccccc2)C(=O)N[C@@H](Cc2ccc(O)cc2)C(=O)N[C@@H](CC(=O)O)C1=O [Example 1001] ({CH2CO}-FYD[NHexGly]Y[Nle]DRL[Ahp(2)]PVDCD-NH2; thioether N-14)
pIC50 [1]: 7.90

CCCCCCN1CC(=O)N[C@@H](Cc2ccc(O)cc2)C(=O)N[C@@H](CCCC)C(=O)NCC(=O)N[C@@H](CCCNC(=N)N)C(=O)N[C@@H](CC(C)C)C(=O)N[C@@H](CCCCC)C(=O)N2CCC[C@H]2C(=O)N[C@@H](C(C)C)C(=O)N[C@@H](CC(=O)O)C(=O)N[C@H](C(=O)NCC(=O)O)CSCC(=O)N[C@@H](Cc2ccc(N)cc2)C(=O)N[C@@H](Cc2ccc(O)cc2)C(=O)N[C@@H](CC(=O)O)C1=O [compound 1464] ({CH2CO}-[Phe(4-NH2)]YD[NHexGly]Y[Nle]GRL[Ahp(2)]PVDCG-OH; thioether N-14)
pIC50 [3]: 7.50

CCCCCCN1CC(=O)N[C@@H](Cc2ccc(O)cc2)C(=O)N[C@@H](CCCC)C(=O)N[C@H](CC(N)=O)C(=O)N[C@@H](CCCNC(=N)N)C(=O)N[C@@H](CC(C)C)C(=O)N[C@@H](CCCCC)C(=O)N2CCC[C@H]2C(=O)N[C@@H](C(C)C)C(=O)N[C@@H](CO)C(=O)N[C@H](C(=O)NCC(=O)O)CSCC(=O)N[C@@H](Cc2c[nH]c3ccccc23)C(=O)N[C@@H](Cc2ccc(O)cc2)C(=O)N[C@@H](CC(=O)O)C1=O [compound 1471] ({CH2CO}-WYD[NHexGly]Y[Nle][dN]RL[Ahp(2)]PVSCG-OH; thioether N-14)
pIC50 [3]: 7.48

CCCCCCN1CC(=O)N[C@@H](Cc2ccc(O)cc2)C(=O)N[C@@H](CCCC)C(=O)N[C@@H](CC(N)=O)C(=O)N[C@@H](CCCNC(N)=O)C(=O)N[C@@H](CC(C)C)C(=O)N[C@@H](CCCCC)C(=O)N2CCC[C@H]2C(=O)N[C@@H](C(C)C)C(=O)N[C@@H](CO)C(=O)N[C@H](C(=O)NCC(=O)NCCOCCOCC(=O)N[C@@H](CC(=O)O)C(=O)NCCOCCOCC(=O)NCCCCCCCCCCC(=O)O)CSCC(=O)N[C@@H](Cc2ccc3ccccc3c2)C(=O)N[C@@H](Cc2ccc(O)cc2)C(=O)N[C@@H](CC(=O)O)C1=O [compound 2016] ({CH2CO}-[2Nal]YD[NHexGly]Y[Nle]N[Cit]L[Ahp(2)]PVSCG[AEEA]D[AEEA][Aun]-OH; thioether N-14)
pIC50 [2]: 7.72

CCCCCCN1CC(=O)N[C@@H](Cc2ccc(O)cc2)C(=O)N[C@@H](CCCC)C(=O)N[C@@H](CC(N)=O)C(=O)N[C@@H](CCCNC(=N)N)C(=O)N[C@@H](CC(C)C)C(=O)N[C@@H](CCCCC)C(=O)N2CCC[C@H]2C(=O)N[C@@H](C(C)C)C(=O)N[C@@H](CO)C(=O)N[C@H](C(=O)NCC(=O)O)CSCC(=O)N[C@@H](Cc2ccc(F)cc2)C(=O)N[C@@H](Cc2ccc(O)cc2)C(=O)N[C@@H](CC(=O)O)C1=O [compound 1462] ({CH2CO}-[Phe(4-F)]YD[NHexGly]Y[Nle]NRL[Ahp(2)]PVSCG-OH; thioether N-14)
pIC50 [3]: 7.65

CCCCCCN1CC(=O)N[C@@H](Cc2ccc(O)cc2)C(=O)N[C@@H](CCCC)C(=O)N[C@@H](CC(N)=O)C(=O)N[C@@H](CCCNC(=N)N)C(=O)N[C@@H](CC(C)C)C(=O)N[C@@H](CCCCC)C(=O)N2CCC[C@H]2C(=O)N[C@@H](C(C)C)C(=O)N[C@@H](CO)C(=O)N[C@H](C(=O)NCCOCCOCC(=O)N[C@@H](CCC(=O)NCCOCCOCC(=O)NCCCCCCCCCCC(=O)O)C(=O)O)CSCC(=O)N[C@@H](Cc2ccc3ccccc3c2)C(=O)N[C@@H](Cc2ccc(O)cc2)C(=O)N[C@@H](CC(=O)O)C1=O [compound 2223] ({CH2CO}-[2Nal]YD[NHexGly]Y[Nle]NRL[Ahp(2)]PVSC[AEEA][γGlu][AEEA][Aun]-OH; thioether N-14)
pIC50 (read-out: HC CBA mVISTA IC50): 7.91
